Measured values from ChEMBL document CHEMBL1126967, “Synthetic pterocarpans with anti-HIV activity” (Bioorg Med Chem Lett, 1993).

Tests used:
[1] = system: CCRF-CEM; test: Compound tested in vitro for inhibition of cytopathic activity of HIV-1 on T4 lymphocytes (CEM cells); assay type: functional, cell-based; details: Homo sapiens
[2] = system: CCRF-CEM; test: Compound tested in vitro for inhibition of cytopathic activity of AZT-sensitive SIV on T4 lymphocytes (CEM cells): IA denotes inactive; assay type: functional, cell-based, Homo sapiens
[3] = system: CCRF-CEM; test: Compound tested in vitro for inhibition of cytopathic activity of AZT-resistant HIV-1 on T4 lymphocytes (CEM cells); assay type: functional, cell-based; details: Homo sapiens
[4] = system: CCRF-CEM; test: Compound tested in vitro for inhibition of cytopathic activity of AZT-sensitive HIV-2 on T4 lymphocytes (CEM cells): IA denotes inactive; assay type: functional, cell-based, Homo sapiens
[5] = system: CCRF-CEM; test: Compound tested in vitro for inhibition of cytopathic activity of Merck-resistant variant of AZT-sensitive HIV-l (A17) on T4 lymphocytes (CEM cells): IA denotes inactive; assay type: functional, cell-based, Homo sapiens
[6] = system: CCRF-CEM; test: Compound tested in vitro for inhibition of cytopathic activity of AZT-sensitive HIV-1 on T4 lymphocytes (CEM cells); assay type: functional, cell-based; details: Homo sapiens
[7] = system: CCRF-CEM; test: Compound tested in vitro for inhibition of cytopathic activity of Merck-resistant variant of AZT-resistant HIV-l (A17) on T4 lymphocytes (CEM cells): IA denotes inactive; assay type: functional, cell-based, Homo sapiens
[8] = system: CCRF-CEM; test: Compound tested in vitro for inhibition of cytopathic activity of AZT-resistant SIV on T4 lymphocytes (CEM cells): IA denotes inactive; assay type: functional, cell-based, Homo sapiens
[9] = system: CCRF-CEM; test: Compound tested in vitro for inhibition of cytopathic activity of AZT-resistant HIV-2 on T4 lymphocytes (CEM cells): IA denotes inactive; assay type: functional, cell-based, Homo sapiens
[10] = system: CCRF-CEM; test: Compound tested in Vitro for inhibition of cytopathic activity of HIV-1 on T4 lymphocytes (CEM cells); Inactive; assay type: functional, cell-based, Homo sapiens
[11] = system: CCRF-CEM; test: Compound tested in Vitro for inhibition of cytopathic activity of HIV-1 on T4 lymphocytes (CEM cells); assay type: functional, cell-based; details: Homo sapiens

| SMILES | EC50 [10] | IC50 [10] | EC50 [11] [µM] | IC50 [11] [µM] | further results |
| --- | --- | --- | --- | --- | --- |
| COc1ccc2c(c1)OCC1c3cc(O)c(OCc4ccccc4)cc3OC21 (stereo not given) | – | – | – | – | EC50 [1]: 1.21 µM; IC50 [1]: 40.5 µM; EC50 [2]: Not Active; EC50 [3]: 1.3 µM; EC50 [4]: Not Active; EC50 [5]: Not Active; EC50 [6]: 3.6 µM; EC50 [7]: Not Active; EC50 [8]: Not Active; EC50 [9]: Not Active |
| COC(=O)c1c(O)ccc2c1C1COc3ccccc3C1O2 (stereo not given) | Not Active | Not Active | – | – | – |
| COc1ccc2c(c1)OCC1c3cc(O)c(OCC4CCCCC4)cc3OC21 (stereo not given) | – | – | 1.46 | 22.2 | – |
| COc1ccc2c(c1)OCC1c3cc(O)c(OCc4ccc5ccccc5c4)cc3OC21 (stereo not given) | – | – | 3.35 | 34.2 | – |
| COc1ccc2c(c1)OCC1c3cc(O)c(OCc4cccc5ccccc45)cc3OC21 (stereo not given) | – | – | 0.43 | 38.5 | – |
| COc1cc2c(c(C)c1O)C1COc3ccccc3C1O2 (stereo not given) | Not Active | Not Active | – | – | – |
| Oc1cc2c(cc1OCc1ccccc1)OC1c3ccccc3OCC21 (stereo not given) | Not Active | Not Active | – | – | – |

Second part, led by results:

| EC50 [10] | IC50 [10] | EC50 [11] [µM] | IC50 [11] [µM] | SMILES | further results |
| --- | --- | --- | --- | --- | --- |
| Not Active | Not Active | – | – | COc1ccc2c(c1)OCC1c3cc(CC=C(C)C)c(OCc4ccccc4)cc3OC21 (stereo not given) | – |
| – | – | 5.7 | 69.4 | COc1ccc2c(c1)OCC1c3cc(OC)c(OCc4ccccc4)cc3OC21 (stereo not given) | – |
| – | – | 2.28 | 24.5 | COc1ccc2c(c1)OCC1c3cc(O)c(OCC(C)C)cc3OC21 (stereo not given) | – |
| Not Active | Not Active | – | – | COc1ccc2c(c1)OCC1c3cc4c(cc3OC21)OCO4 (stereo not given) | – |
| Not Active | Not Active | – | – | COc1cc2c(cc1O)C1COc3ccccc3C1O2 (stereo not given) | – |
| Not Active | Not Active | – | – | COc1ccc2c(c1)OC1c3ccc(OC)cc3OCC21 (stereo not given) | – |
| – | – | 31.2 | 200 | COc1ccc2c(c1)OCC1c3ccc(OCc4ccccc4)cc3OC21 (stereo not given) | – |
| Not Active | Not Active | – | – | COc1ccc2c(c1)OCC1c3cc(O)c(OC)cc3OC21 (stereo not given) | – |
| Not Active | Not Active | – | – | COC(=O)c1c(O)ccc2c1C1COc3cc(OC)ccc3C1O2 (stereo not given) | – |
